From patent US4826817A, “Amino acid and hydroxyamino acid transporter compounds for therapeutic applications, process and use” (priority 1986, dated 1989)

Legend:
[1] = Plasma and brain levels of L-tyrosine after intraperitoneal injection to rats; conditions: rat; for concentration at 0.5 h / concentration at 2 h: ip, 1620 umol/kg
Protocol: Male CD-COBS rats (Charles River, Italy) weighing 200 g were used. The animals housed under standard conditions of light-dark cycle, temperature and humidity with free access to water and food. […] Controls received saline. Rates were killed by decapitation 30 and 120 min. after treatment. Plasma and brain were rapidly removed and kept at -20° C. until assay.

[2] = Plasma and brain levels of L-tyrosine after intravenous injection to rats; format: in vivo, rat (male CD-COBS); conditions: rat, i.v. 1.62 mmol/kg, Table I
Excerpt: Controls received saline.

| brain L-tyrosine concentrations (in words) ([2]; both intervals (30 and 120 min)) | Compound | concentration at 0.5 h ([1]; brain) | concentration at 2 h ([1]; brain) | brain L-tyrosine concentrations (in words) ([1]; i.p. 1.62 mmol/kg, both intervals (30 and 120 min), Table II, L-tyrosine p<0.05, O-L-lysyl-L-tyrosine p<0.01) | concentration at 0.5 h ([1]; plasma) | concentration at 2 h ([1]; plasma) | Plasma L-tyrosine (in words) [2] |
| --- | --- | --- | --- | --- | --- | --- | --- |
| – | N[C@@H](Cc1ccc(O)cc1)C(=O)O [L-tyrosine] | 20200 ± 1750 ng/g | 21800 ± 1520 ng/g | significantly increased | 16900 ± 2060 ng/g | 12700 ± 2230 ng/g | – |
| significantly increased | NCCCC[C@H](N)C(=O)Oc1ccc(C[C@H](N)C(=O)O)cc1 [O-L-lysyl-L-tyrosine] | – | – | – | – | – | significantly raised by only 30 min. after the i.v. dose |
